We go through six molecules from US20060074049A1, “Use of heparinoids for treatment and prevention of dementia” (priority 2004, published 2006).

In experiment [1] the test system is p21 and p27. Description: p21 and p27 expression in NPC by immunohistochemistry. Format: cell-based, human. The procedure:
For p21 and p27 detection, NPC were grown with recombinant coat proteins for 24 hours. Cells were fixed and monoclonal antibodies to p21 or p27 (Pharmingen) were added. A secondary antibody conjugated to Cy3 was used for detection.
NCP were incubated with 800 pM recombinant coat proteins, and expression of p21 and p27 was analyzed using immunohistochemistry.

Experiment [2] deals with ERK. As to the kind of experiment: ERK phosphorylation in NPC by flow cytometry. It counts as cell-based, human. As for the experimental part: Signaling: Isolated NPC were incubated with coat proteins for 10 minutes, placed on ice, fixed, permeabilized with saponin, and stained with fluorescein isothiocyanate-(FITC-) conjugated phosphospecific monoclonal antibodies to ERK (Santa Cruz Biotechnology, Santa Cruz, Calif.). Cells were then analyzed by flow cytometry. Activity of PP2A was inhibited by incubation with okadaic acid (Calbiochem, San Diego, Calif.) at 2.5 μM for 1 hour prior to the addition of coat proteins. Experiments were performed at least twice, and determinations were performed in triplicate.
Proliferation of NPC is increased by signals that increase ERK phosphorylation (Learish et al. (2000) Develop. Brain Res. 122:97-109). […] NPC were incubated with a panel of HIV coat proteins and assayed to determine the fraction of cells with phosphorylated ERK. The CM235 and IIIb coat proteins inhibited ERK phosphorylation by 34% and 77% respectively (p<0.05 for both; FIGS. 2A and 2B). […] Thus, HIV coat proteins are able to activate a cellular phosphatase by signaling through chemokine receptors and reduce ERK phosphorylation, leading to reduced NPC proliferation.

The test system of experiment [3] is human NPC. As to the kind of experiment: Plating assay: NPC colony formation / quiescence. It counts as cell-based. The procedure: Cells and Materials: Normal human NPC were obtained from Clonetics Corp (San Diego, Calif.), and grown in neural progenitor maintenance medium (Clonetics) with human recombinant basic fibroblast growth factor, epidermal growth factor, neural survival factors and antibiotics. These cells were derived as described previously (Svendsen (1998) J. Neurosci. Meth. 85:141-152).
Plating Assay: On day 0, HIV coat proteins at a concentration of 800 pM, or CSF at a concentration of 2% was added to cultures of NPC. Each protein or CSF sample was tested in triplicate. Cultures were incubated for seven days, and then cells were plated onto 24 well polyethylene-imine coated plates. The number of cell colonies having more than 20 cells with typical neuronal morphology was counted for each well after 7 days in culture. Determinations of colony inhibition for all proteins and CSF samples were done on each of three different lots of NPC. Each lot was passaged 1-3 times before testing, with no differences seen between this number of passages.
The ability of HIV coat proteins to induce quiescence in human NPC was tested using NPC in the form of neurospheres. Typically, neurospheres with quiescent cells fail to attach and differentiate, while neurospheres containing proliferating cells will attach and differentiate into neurons and astrocytes. To determine whether only those coat proteins that signal through either the CXCR4 receptor or the […] receptor would induce quiescence of NPC, purified recombinant coat proteins from several different strains of HIV were tested. These included the R5 strain CM235, the X4 strain IIIb, and the clade E/A recombinant R5 strain 93TH975 (Gao et al. (1996) J. Virol. 70:1651-1667). […] The number of colonies containing more than 20 cells with typical neuronal morphology was counted after 7 days in culture. […] None of the coat proteins induced cell death in NPC, as determined by trypan blue staining (>95% viability in all coat-protein treated cultures). […]

The subject of experiment [4] is NPC in human hippocampal slices. As to the kind of experiment: Hippocampal slice cultures, BrdU positive NPC. It counts as cell-based. The conditions noted are these: coat protein 1 nM; p<0.001. The procedure: Hippocampal slice cultures: Discarded hippocampal tissue was obtained from patients undergoing corrective surgery for seizures as previously described (Roy et al. (2000) Nat. Med. 6:271-277; and Pincus et al. (1998) Neurosurg. 42:858-868). Tissue was obtained within 1 hour of removal and cultured as described (Stoppini et al. (1991) J. Neurosci, Meth. 37:173-182). Briefly, tissue was sliced to 200 μm thickness using a Brendel-Vitron tissue slicer (Vitron, Inc., Tucson, Ariz.). Slices were placed in a Transwell insert (Costar, Corning, N.Y.) and cultured in neural progenitor maintenance medium (NPMM) with or without chemokines (500 ng/ml), HIV coat proteins (1 nM) or CSF (2%) added on day 0. Each sample was tested in triplicate. The entire experiment was performed at least twice with identical results. Slices were labeled with BrdU on day 5 of culture, and harvested for immunohistochemistry on day 7 by freezing slices in OCT. Five-micron sections were made, and BrdU incorporation was detected using a BrdU in situ kit (Pharmingen, San Diego, Calif.). For dual staining of BrdU and Musashil, a polyclonal antibody to Musashil (Chemicon International, Temecula, Calif.) was used at a dilution of 1:10. Apoptotic cells were detected using a TUNEL assay (Oncogene, Boston, Mass.). […]

For experiment [5], the system named is human NPC. Description: BrdU incorporation into NPC neurospheres by flow cytometry. It counts as cell-based. The text has this:
FIG. 1 is a graph showing the number of NPC colonies displaying outgrowth of cells with neuronal morphology after treatment with coat proteins from the HIV strains 93TH975, CM235 and IIIb. The mean+/−standard error is shown. PTX=pertussis toxin, Anti V3=monoclonal antibody to the V3 loop region of gp120. FIG. 1B is a series of graphs showing the level of bromodeoxyuridine (BrdU) incorporation into NPC neurospheres treated with coat proteins from the HIV strains 93TH975, CM235 and IIIb. Shaded area=control cells, solid line=treated cells.
To quantitate the ability of the coat proteins to cause cells to become quiescent, the number of attached, differentiated colonies was counted. […] In contrast, the 93TH975 coat protein had no effect. In order to confirm that cell proliferation was indeed inhibited by the coat proteins, cultures of NPC were labeled with BrdU, and BrdU incorporation was measured by flow cytometry.

In experiment [6] the test system is human neurospheres (NPC). Description: Block of IIIb coat protein effect on NPC proliferation by recombinant apolipoproteins. Format: cell-based. To be noted: 20 nM recombinant apolipoprotein. The procedure:
FIG. 6 is a graph showing the number of BrdU labeled NPC in samples treated with recombinant HIV gp120 from the IIIb strain, which was pre-incubated with or without recombinant ApoE3 and ApoE4.
A risk factor for the development of HIV dementia is homozygosity for the apolipoprotein E4 genotype (Corder et al. (1998) Nat. Med. 4:1182-1184). In Herpes simplex virus infection, it has been speculated that apo E proteins compete with HSV for binding to HS, and that apo E4 cannot compete as efficiently as apo E3 (Itzhaki et al. (1998) Nat. Med. 4:1344). To determine whether apolipoproteins might compete with HIV coat proteins for binding to cell surface HS on NPC, human neurospheres were incubated with the IIIb coat protein, and the ability of recombinant apolipoproteins to block the inhibitory effect of the coat protein on NPC proliferation was tested. […] Thus, apolipoproteins compete with HIV coat proteins for cell surface binding.

For `c1cc(CN2CCCNCCNCCCNCC2)ccc1CN1CCCNCCNCCCNCC1` [AMD3100, reference compound], in experiment [1] (with IIIb coat protein), the “effect on induction of p21 and p27 by the IIIb coat protein” value is recorded as “blocked”.

`C=C1[C@@H](O)[C@@H]2O[C@]3(CC[C@H](/C=C/[C@@H](C)[C@@H]4CC(C)=C[C@@]5(O[C@H](C[C@@](C)(O)C(=O)O)CC[C@H]5O)O4)O3)CC[C@H]2O[C@@H]1[C@@H](O)C[C@H](C)[C@H]1O[C@@]2(CCCCO2)CC[C@H]1C` [okadaic acid, reference compound]: the “effect on inhibition of ERK phosphorylation induced by CM235 and IIIb coat proteins” value in experiment [2] (2.5 μM for 1 hour prior to coat proteins) is “blocked the inhibition of ERK phosphorylation”.

In the case of “IIIb: purified recombinant HIV coat protein (gp120) of the X4 strain IIIb”, the “expression of p21 and p27 in NPC” value in experiment [1] (800 pM recombinant coat protein) was “induced expression of p21 and p27”. For the same molecule, the “induction of quiescence / effect on attached differentiated NPC colonies (in words)” value in experiment [3] (coat protein 800 pM for 7 days) is recorded as “caused NPC to enter a quiescent state”. Further, in experiment [3] (coat protein 800 pM for 7 days, colonies counted after 7 days on coated plates, p<0.001), the “reduction of the number of differentiated NPC colonies” value worked out at 74%. Moreover, the “reduction in fraction of NPC with phosphorylated ERK” value in experiment [2] (NPC incubated with coat protein 10 minutes, p<0.05 for CM235 and IIIb, 93TH975 non-significant) stood at 77%. For the same molecule, the “reduction of proliferation of NPC (BrdU positive cells) in hippocampal slices” value in experiment [4] is given as 70%. In addition, the “BrdU incorporation into NPC, tested 7 days after addition of coat proteins” value in experiment [5] (7 days after addition) is given as “incorporation similar to controls”. Also, the “BrdU incorporation into NPC compared with controls” value in experiment [5] (coat protein treated NPC) was “less BrdU incorporation”.

Regarding apo E3: recombinant apolipoprotein E3, the “block of IIIb coat protein inhibition of NPC proliferation” value in experiment [6] is reported as “prevented the IIIb coat protein from inhibiting NPC proliferation”.

As to apo E4: recombinant apolipoprotein E4, in experiment [6], the “block of IIIb coat protein inhibition of NPC proliferation” value is reported as “did not”.

As for pertussis toxin [reference compound], the “effect on the inhibitory effects of CM235 and IIIb coat proteins on NPC” value in experiment [3] (added to NPC cultures in addition to coat proteins) is “eliminated”.
